According to patent US20260116910A1, “POLYCYCLIC COMPOUNDS AND METHODS THEREOF” (HEPAITECH (BEIJING) BIOPHARMA TECHNOLOGY CO., LTD., priority 2021, published 2026):

Legend:
MRGPRX4 = MRGPRX4 (Homo sapiens, UniProt Q96LA9); test: MRGPRX4 activation, Fluo-8 Ca2+ FLIPR assay in HEK293T cells stably expressing MRGPRX4; assay type: cell-based; details: for EC50: MRGPRX4 activation, Ca2+ fluorescence, no activation in tested range reported as III, read-out: Activity (EC50 μM)
Description: In some embodiments, cells were cultured in poly-D-Lys coated blacked walled, clear-bottom 96-well microplates. HEK293T cells stably expressing MRGPRX4 were cultured in DMEM medium supplemented with 10% FBS and 1% PS, at 37° C. in a humidified atmosphere with 5% CO2. Cells were detached by centrifuging (1000 rpm, 3 min). The pellet was re-suspended in medium, and cell density was adjusted to about 1×10^6 cells/mL. 100 μL suspension was seeded to each well of a microplates (cell plate). Cells in the microplates were cultured overnight. In the following day, cells were grown to higher than 95% density in each well.
Ca^2+ fluorescent dye loading: Fluo-8 AM (Screen Quest Fluo-8 AM Calcium Assay Kit, AAT Bioquest, cat. #: 21083) was diluted in HHBS buffer and adjusted to 2 μM (dye buffer). Medium in each well was changed into 50 μL dye buffer carefully. After incubation for 40-60 min under room temperature, the dye buffer was changed into 50 μL HHBS buffer.
The concentration of solution should be determined according to the protocol settings and experimental needs (e.g., Log[M]=−4, −5, −6, −7, −8, and −9). Prepare 2× serial dilution series of compounds (at least 75 μL per well).
A fluorescent signal baseline was measured using FLIPR®Tetra for 30 s. Then 50 μL of the chemical solution would be added to the cell plate. The fluorescent signal would be measured for another 150 s.
Activity of each compound was calculated by the fluorescence change (dF/F0). Curves were fitted to obtain EC50 values. In some embodiments, at least 3 repeats were performed to obtain the average values. For assessment of a compound, gradient diluted solutions of different concentrations were used to treat cells and corresponding responses were used to fit sigmoid function and to derive EC50 in Origin. In some embodiments, assessed concentrations were or included about 10^−4, 10^−4.5, 10^−5, 10^−5.5, 10^−6, 10^−6.5, 10^−7, 10^−8, and/or 10^−9 M; for example, in many instances, assessed concentrations included about 10^−5, 10^−6, 10^−7 and 10^−8 M. In some embodiments, assessed concentrations were about 10^−4, 10^−4.5, 10^−5, 10^−5.5, 10^−6, 10^−7, 10^−8, and 10^−9 M. In some embodiments, assessed concentrations were about 10^−4, 10^−5, 10^−6, 10^−7, 10^−8, and 10^−9 M. In some embodiments, assessed concentrations were about 10^−4, 10^−4.5, 10^−5, 10^−5.5, 10^−6, and 10^−7 M. In some embodiments, assessed concentrations were about 2000000, 1000000, 500000, 250000, 125000, 62500, 31250, 15625, 7813, 3906 nM. […] In some embodiments, assessed concentrations were about 30000, 10000, 3333, 1111, 370, 123, 41, 14, 4.6, 1.5 nM.

human FXR (NR1H4) = target: T1, human FXR (NR1H4) (Homo sapiens, UniProt Q96RI1); test: Human FXR (NR1H4) agonist assessment, FXRE-NanoLuc reporter in HEK293T cells; assay type: cell-based; details: FXR activation, HEK293T FXRE-NanoLuc reporter, 24 hr; for EC50: read-out: EC50
T1 sequence (Q96RI1 1-476 isoform Q96RI1-1): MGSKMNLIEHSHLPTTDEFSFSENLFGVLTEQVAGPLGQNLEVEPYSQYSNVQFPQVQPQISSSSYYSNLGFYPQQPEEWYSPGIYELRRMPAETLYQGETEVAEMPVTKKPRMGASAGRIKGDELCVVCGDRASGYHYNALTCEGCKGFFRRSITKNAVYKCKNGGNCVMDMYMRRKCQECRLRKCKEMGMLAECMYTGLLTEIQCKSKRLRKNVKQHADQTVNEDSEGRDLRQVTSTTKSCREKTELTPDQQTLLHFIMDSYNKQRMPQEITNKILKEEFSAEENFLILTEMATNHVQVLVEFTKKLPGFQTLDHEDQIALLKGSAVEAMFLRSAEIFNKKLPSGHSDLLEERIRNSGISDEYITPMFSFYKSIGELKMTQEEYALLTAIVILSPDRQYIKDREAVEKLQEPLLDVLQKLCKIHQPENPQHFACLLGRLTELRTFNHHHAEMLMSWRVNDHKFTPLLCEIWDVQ
Outline: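 HEK293T cells stably expressing human FXR with an FXRE-NanoLuc reporter were treated with compounds for 24 hr at 37 °C, with 0.01% DMSO as negative control. Medium was read for luminescence after 5 min with coelenterazine. EC50 was fitted by sigmoid to concentration-response data.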

Chain of MRGPRX4 (Q96LA9 whole entry): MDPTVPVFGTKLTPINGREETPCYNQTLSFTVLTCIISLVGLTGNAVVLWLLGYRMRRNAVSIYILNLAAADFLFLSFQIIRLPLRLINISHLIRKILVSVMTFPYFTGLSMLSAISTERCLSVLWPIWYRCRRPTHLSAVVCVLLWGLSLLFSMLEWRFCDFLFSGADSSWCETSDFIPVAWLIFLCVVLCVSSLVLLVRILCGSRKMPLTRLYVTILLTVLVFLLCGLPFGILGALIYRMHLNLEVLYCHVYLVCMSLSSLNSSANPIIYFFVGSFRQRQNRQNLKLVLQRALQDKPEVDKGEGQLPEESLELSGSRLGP

Structure (SMILES)	MRGPRX4 activation, fluorescence change (dF/F0), Average (MRGPRX4; Conc. (Log[M]) −4)	MRGPRX4 activation, fluorescence change (dF/F0), Average (MRGPRX4; Conc. (Log[M]) −4.5)	MRGPRX4 activation, fluorescence change (dF/F0), Average (MRGPRX4; Conc. (Log[M]) −5)	MRGPRX4 activation, fluorescence change (dF/F0), Average (MRGPRX4; Conc. (Log[M]) −5.5)	MRGPRX4 activation, fluorescence change (dF/F0), Average (MRGPRX4; Conc. (Log[M]) −6)	MRGPRX4 activation, fluorescence change (dF/F0), Average (MRGPRX4; Conc. (Log[M]) −7)	MRGPRX4 activation, fluorescence change (dF/F0), Average (MRGPRX4; Conc. (Log[M]) −8)	MRGPRX4 activation, fluorescence change (dF/F0), Average (MRGPRX4; Conc. (Log[M]) −9)	EC50 (MRGPRX4)	Efficacy (maximum measured induction of NanoLuc, normalized to CDCA set as 100%) (human FXR (NR1H4))	EC50 (human FXR (NR1H4))
C[C@H](CCC(C)(C)O)[C@H]1CC[C@H]2[C@@H]3CC[C@@H]4CCCC[C@]4(C)[C@H]3CC[C@]12C [2-3]	0.074	0.027	−0.036	−0.031	−0.031	−0.008	−0.023	−0.017	> 100 µM	C (100%<efficacy <=300%)	1 to 10 µM
CC[C@H]1[C@@H](O)[C@@H]2[C@H](CC[C@]3(C)[C@@H]([C@H](C)CC#N)CC[C@@H]23)[C@@]2(C)CCCC[C@@H]12 [2-4]	0.008	−0.025	−0.026	−0.018	−0.037	−0.025	−0.038	−0.037	> 100 µM	C (100%<efficacy <=300%)	> 10 µM
CC[C@H]1[C@@H](O)[C@@H]2[C@H](CC[C@]3(C)[C@@H]([C@H](C)CCO)CC[C@@H]23)[C@@]2(C)CCCC[C@@H]12 [2-5]									> 100 µM	A (efficacy >400%)	1 to 10 µM
CC[C@H]1[C@@H](O)[C@@H]2[C@H](CC[C@]3(C)[C@@H]([C@H](C)CCCOS(=O)(=O)O)CC[C@@H]23)[C@@]2(C)CCCC[C@@H]12 [2-6]			−0.047						50 to 100 µM	B (300%<efficacy <=400%)	1 to 10 µM
CC[C@H]1[C@@H](OC(=O)c2cccc(I)c2)[C@@H]2[C@H](CC[C@]3(C)C([C@H](C)CCC(=O)OC)=CC[C@@H]23)[C@@]2(C)CCCC[C@@H]12 [3-1]	0.008	0.004	−0.027	−0.004	−0.017	0.005	0.001	−0.001	> 100 µM	C (100%<efficacy <=300%)	1 to 10 µM
CC[C@H]1[C@@H](OC(=O)c2cccc(I)c2)[C@@H]2[C@H](CC[C@]3(C)C([C@H](C)CCC(=O)OC)=CC(=O)[C@@H]23)[C@@]2(C)CCCC[C@@H]12 [3-2]	0.130	0.023	−0.003	−0.034	0.008	−0.014	−0.016	−0.035	> 100 µM	C (100%<efficacy <=300%)	> 10 µM
